Measured values as given in PubChem BioAssay (NCI).
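Cells were grown in 96-well plates and exposed to each compound for 48 hours at five concentrations; endpoints were interpolated linearly between bracketing concentrations, or set to the highest concentration if not reached. GI50 is the concentration that inhibits growth by half. TGI marks complete inhibition of growth.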

Legend:
Test in all cases: NCI anticancer screen, dose series, 48 h
U251 CNS = tested on: U251 CNS
SNB-75 CNS = tested on: SNB-75 CNS
LOX IMVI melanoma = tested on: LOX IMVI melanoma
HT29 colon = tested on: HT29 colon
EKVX NSCLC = tested on: EKVX NSCLC
RPMI-8226 leukemia = tested on: RPMI-8226 leukemia
786-0 renal = tested on: 786-0 renal
UO-31 renal = tested on: UO-31 renal
TK-10 renal = tested on: TK-10 renal
T-47D breast = tested on: T-47D breast

Compound	TGI (U251 CNS)	TGI (SNB-75 CNS)	TGI (LOX IMVI melanoma)	TGI (HT29 colon)	TGI (EKVX NSCLC)	TGI (RPMI-8226 leukemia)	TGI (786-0 renal)	TGI (UO-31 renal)	TGI (TK-10 renal)	GI50 (U251 CNS)	GI50 (SNB-75 CNS)	GI50 (LOX IMVI melanoma)	GI50 (HT29 colon)	GI50 (EKVX NSCLC)	GI50 (RPMI-8226 leukemia)	GI50 (786-0 renal)	GI50 (UO-31 renal)	GI50 (TK-10 renal)	GI50 (T-47D breast)	TGI (T-47D breast)
CCOc1ccc2c(c1)[n+]([O-])c(-c1nc3ccccc3s1)c(N)[n+]2[O-]	> 100 µM	> 100 µM	> 100 µM	> 100 µM	> 100 µM	> 100 µM	> 100 µM	96.3 µM	> 100 µM											
COC1=CC2(C=CC1=O)c1cc(OC)c(OC)cc1CCN2C(=O)c1ccccc1 (centres undefined)	> 100 µM	> 100 µM	> 100 µM	> 100 µM	> 100 µM	> 100 µM	> 100 µM	> 100 µM	> 100 µM											
CC(C)c1ccc(C(c2ccc(OCC(=O)O)cc2)c2ccc(C(C)C)cc(=O)c2O)c(O)c(=O)c1	24.9 µM	16.2 µM	14.8 µM	> 100 µM	> 100 µM	47 µM	22 µM		42.8 µM											
C=C1C(=O)O[C@H]2[C@H]1CC/C(COC(=O)c1cc3ccccc3s1)=C\CC[C@@]1(C)O[C@@H]21	3.03 µM	13.4 µM	0.509 µM	1.84 µM	3.19 µM	4.79 µM	3.44 µM	2.79 µM	2.93 µM	1.52 µM	3.52 µM	0.206 µM	0.499 µM	1.69 µM	0.566 µM	1.52 µM	1.4 µM	1.55 µM		
Cc1ccc(NC(=O)NCCCOc2ccc(N3C(N)=NC(N)=NC3(C)C)cc2Cl)cc1S(=O)(=O)F	> 100 µM	51.4 µM	> 100 µM		> 100 µM	> 100 µM	> 100 µM	> 100 µM		4.04 µM	8.62 µM	4.19 µM		10.9 µM	60.7 µM	7.36 µM	> 100 µM		19.8 µM	> 100 µM
N#CCC(=O)NC1C2CC3CC(C2)CC1C3 (centres undefined)	29.8 µM	33.5 µM	23.8 µM	33.1 µM	33.9 µM	> 100 µM	35.8 µM	> 100 µM	46.2 µM											
COC(C(O)c1ccc2c(c1)OCO2)P(=O)(c1ccccc1)c1ccccc1 (centres undefined)	> 100 µM	> 100 µM		> 100 µM	> 100 µM		> 100 µM	> 100 µM	> 100 µM											
N.N.O=C([O-])P(=O)([O-])[O-].[Na+].[Pt+4]	> 100 µM	> 100 µM			> 100 µM	> 100 µM	> 100 µM	> 100 µM	> 100 µM	> 100 µM	> 100 µM			> 100 µM	> 100 µM	> 100 µM	> 100 µM	> 100 µM		
OC/C=C(\I)CCCOCOCc1ccccc1	64 µM	> 100 µM	45.9 µM	> 100 µM	> 100 µM	47.5 µM	> 100 µM	> 100 µM	> 100 µM											
